Measurements reported in patent US20250188092A1, “RIFAMYCIN ANALOGS” (THE REGENTS OF THE UNIVERSITY OF MICHIGAN, priority 2021, published 2025).
Values after ≈ are worked out from the molar mass of the structure shown. Where two headings read alike, the source gives them in different places.

Columns and labels:
[1] = system: MTB H37Rv ATCC 27294; experiment: MIC, microplate Alamar Blue assay (MABA); format: cell-based, Mycobacterium tuberculosis; conditions: for MIC90: MTB H37Rv ATCC 27294, microplate Alamar Blue assay, lowest concentration giving ≥90% reduction in fluorescence
[2] = system: DPX2 cells
[3] = system: VERO cells (ATCC CRL-81); experiment: Vero cell toxicity; format: cell-based; conditions: 72 hours exposure
Experimental: Cytotoxicity for a mammalian cell line was determined by exposing VERO cells (ATCC CRL-81) to serial dilutions of test compounds for 72 hours, followed by addition of resazurin and measurement of fluorescence after 4 hours incubation (Choules, et al., Antimnicrob. Agents Chemother. 2019, 63, e02204-02218).

| Compound | MIC90 MABA Rel to RMP [1] | MIC90 ([1]; Mycobacterium tuberculosis) [nM] | DPX2 Viability @ 6.25 μM ([2]; 24 h) [%] | DPX2 Viability @ 25 μM ([2]; human) [%] | MIC90 [1] [nM] | IC50 [3] [µM] | DPX2 Viability @ 6.25 μM ([2]; human, 24 h) [%] | DPX2 Viability @ 25 μM ([2]; human, 24 h, 25 μM) [%] |
| --- | --- | --- | --- | --- | --- | --- | --- | --- |
| CCC(=O)N1CCN(c2cc(C)c3nc4c5c6c7c(C)c(O)c5c(=O)c(c-4oc3c2)NC(=O)/C(C)=C\C=C\[C@H](C)[C@H](O)[C@@H](C)[C@@H](O)[C@@H](C)[C@H](OC(C)=O)[C@H](C)[C@@H](OC)/C=C/O[C@@](C)(O7)C6=O)CC1 [Compound 26e, (7S,9E,11S,12R,13S,14R,15R,16R,17S,18S,19E,21Z)-2,15,17-Trihydroxy-11-methoxy-3,7,12,14,16,18,22,32-octamethyl-6,23,37-trioxo-30-(4-propanoylpiperazin-1-yl)-8,27,38-trioxa-24,34-diazahexacyclo[23.11.1.1^4,7.0^5,36.0^26,35.0^28,33]octatriaconta-1(36)2,4,9,19,21,25,28,30,32,34-undecaen-13-yl acetate] | 0.35 | 9.4 | 101 | 97 | – | – | – | – |
| CO[C@H]1/C=C/O[C@@]2(C)Oc3c(C)c(O)c4c(=O)c(c5oc6cc(N7CCN(C(=O)OC(C)(C)C)CC7)cc(C)c6nc-5c4c3C2=O)NC(=O)/C(C)=C\C=C\[C@H](C)[C@H](O)[C@@H](C)[C@@H](O)[C@@H](C)[C@H](OC(C)=O)[C@@H]1C [Compound 26i, tert-Butyl 4-[(7S,9E,11S,12R,13S,14R,15R,16R,17S,18S,19E,21Z)-13-(acetyloxy)-2,15,17-trihydroxy-11-methoxy-3,7,12,14,16,18,22,32-octamethyl-6,23,37-trioxo-8,27,38-trioxa-24,34-diazahexacyclo[23.11.1.1^4,7.0^5,36.0^26,35.0^28,33]octatriaconta-1(36)2,4,9,19,21,25,28,30,32,34-undecaen-30-yl]piperazine-1-carboxylate] | 0.17 | 4.7 (≈ 4.62 ng/mL) | 120 | 102 | – | – | – | – |
| CO[C@H]1/C=C/O[C@@]2(C)Oc3c(C)c(O)c4c(=O)c(c5oc6cc(C=O)cc(N7CCN(CC(C)C)CC7)c6nc-5c4c3C2=O)NC(=O)/C(C)=C\C=C\[C@H](C)[C@H](O)[C@@H](C)[C@@H](O)[C@@H](C)[C@H](OC(C)=O)[C@@H]1C [Compound 30d, (7S,9E,11S,12R,13S,14R,15R,16R,17S,1S,19E,21Z)-30-Formyl-2,15,17-trihydroxy-11-methoxy-3,7,12,14,16,18,22-heptamethyl-32-[4-(2-methylpropyl)piperazin-1-yl]-6,23,37-trioxo-8,27,38-trioxa-24,34-diazahexacyclo[23.11.1.1^4,7.0^5,36.0^26,35.0^28,33]octatriaconta-1(36)2,4,9,19,21,25,28,30,32,34-undecaen-13-yl acetate] | <0.6 | – | – | – | <16 | > 8 | – | – |
| COC(=O)N1CCN(c2cc(C)c3nc4c5c6c7c(C)c(O)c5c(=O)c(c-4oc3c2)NC(=O)/C(C)=C\C=C\[C@H](C)[C@H](O)[C@@H](C)[C@@H](O)[C@@H](C)[C@H](OC(C)=O)[C@H](C)[C@@H](OC)/C=C/O[C@@](C)(O7)C6=O)CC1 [Compound 26g, Methyl 4-[(7S,9E,11S,12R,13S,14R,15R,16R,17S,18S,19E,21Z)-13-(acetyloxy)-2,15,17-trihydroxy-11-methoxy-3,7,12,14,16,18,22,32-octamethyl-6,23,37-trioxo-8,27,38-trioxa-24,34-diazahexacyclo[23.11.1.1^4,7.0^5,36.0^26,35.0^28,33]octatriaconta-1(36)2,4,9,19,21,25,28,30,32,34-undecaen-30-yl]piperazine-1-carboxylate] | 0.18 | 5 (≈ 4.71 ng/mL) | 111 | 105 | – | – | – | – |
| CO[C@H]1/C=C/O[C@@]2(C)Oc3c(C)c(O)c4c(=O)c(c5oc6cc(N7CCN(C(C)=O)CC7)cc(C)c6nc-5c4c3C2=O)NC(=O)/C(C)=C\C=C\[C@H](C)[C@H](O)[C@@H](C)[C@@H](O)[C@@H](C)[C@H](OC(C)=O)[C@@H]1C [Compound 26d, (7S,9E,11S,12R,13S,14R,15R,16R,17S,18S,19E,21Z)-30-(4-Acetylpiperazin-1-yl)-2,15,17-trihydroxy-11-methoxy-3,7,12,14,16,18,22,32-octamethyl-6,23,37-trioxo-8,27,38-trioxa-24,34-diazahexacyclo[23.11.1.1^4,7.0^5,36.0^26,35.0^28,33]octatriaconta-1(36)2,4,9,19,21,25,28,30,32,34-undecaen-13-yl acetate] | 0.35 | 9.4 | 106 | 88 | – | – | – | – |
| CO[C@H]1/C=C/O[C@@]2(C)Oc3c(C)c(O)c4c(=O)c(c5oc6cc(N7CCN(C(=O)C(C)(C)C)CC7)cc(C)c6nc-5c4c3C2=O)NC(=O)/C(C)=C\C=C\[C@H](C)[C@H](O)[C@@H](C)[C@@H](O)[C@@H](C)[C@H](OC(C)=O)[C@@H]1C [Compound 26f, (7S,9E,11S,12R,13S,14R,15R,16R,17S,18S,19E,21Z)-30-[4-(2,2-Dimethylpropanoyl)piperazin-1-yl]-2,15,17-trihydroxy-11-methoxy-3,7,12,14,16,18,22,32-octamethyl-6,23,37-trioxo-8,27,38-trioxa-24,34-diazahexacyclo[23.11.1.1^4,7.0^5,36.0^26,35.0^28,33]octatriaconta-1(36)2,4,9,19,21,25,28,30,32,34-undecaen-13-yl acetate] | 0.17 | 4.6 | 111 | 102 | – | – | – | – |
| CO[C@H]1/C=C/O[C@@]2(C)Oc3c(C)c(O)c4c(=O)c(c5oc6cc(N7CCN(CC(C)C)CC7)cc(N7CCN(CC(C)C)CC7)c6nc-5c4c3C2=O)NC(=O)/C(C)=C\C=C\[C@H](C)[C@H](O)[C@@H](C)[C@@H](O)[C@@H](C)[C@H](OC(C)=O)[C@@H]1C [Compound 17u, 7S,9E,11S,12R,13S,14R,15R,16R,17S,18S,19E,21Z)-2,15,17-trihydroxy-11-methoxy-3,7,12,14,16,18,22-heptamethyl-30,32-bis[4-(2-methylpropyl)piperazin-1-yl]-6,23,37-trioxo-8,27,38-trioxa-24,34-diazahexacyclo[23.11.1.1^4,7.0^5,36.0^26,35.0^28,33]octatriaconta-1,3,5(36)9,19,21,25,28,30,32,34-undecaen-13-yl acetate] | – | – | 106 | 90 | – | – | – | – |
| CCOC(=O)N1CCN(c2cc(C)c3nc4c5c6c7c(C)c(O)c5c(=O)c(c-4oc3c2)NC(=O)/C(C)=C\C=C\[C@H](C)[C@H](O)[C@@H](C)[C@@H](O)[C@@H](C)[C@H](OC(C)=O)[C@H](C)[C@@H](OC)/C=C/O[C@@](C)(O7)C6=O)CC1 [Compound 26h, Ethyl 4-[(7S,9E,11S,12R,13S,14R,15R,16R,17S,18S,19E,21Z)-13-(acetyloxy)-2,15,17-trihydroxy-11-methoxy-3,7,12,14,16,18,22,32-octamethyl-6,23,37-trioxo-8,27,38-trioxa-24,34-diazahexacyclo[23.11.1.1^4,7.0^5,36.0^26,35.0^28,33]octatriaconta-1(36)2,4,9,19,21,25,28,30,32,34-undecaen-30-yl]piperazine-1-carboxylate] | 0.18 | 4.9 (≈ 4.68 ng/mL) | 118 | 110 | – | – | – | – |
| CO[C@H]1/C=C/O[C@@]2(C)Oc3c(C)c(O)c4c(=O)c(c5oc6cc(N7CCN(CCn8ccnc8)CC7)cc(C)c6nc-5c4c3C2=O)NC(=O)/C(C)=C\C=C\[C@H](C)[C@H](O)[C@@H](C)[C@@H](O)[C@@H](C)[C@H](OC(C)=O)[C@@H]1C [Compound 26c, (7S,9E,11S,12R,13S,14R,15R,16R,17S,18S,19E,21Z)-2,15,17-trihydroxy-30-{4-[2-(1H-imidazol-1-yl)ethyl]piperazin-1-yl}-11-methoxy-3,7,12,14,16,18,22,32-octamethyl-6,23,37-trioxo-8,27,38-trioxa-24,34-diazahexacyclo[23.11.1.1^4,7.0^5,36.0^26,35.0^28,33]octatriaconta-1(36)2,4,9,19,21,25,28,30,32,34-undecaen-13-yl acetate] | – | – | 108 | 96 | – | – | – | – |
| CO[C@H]1/C=C/O[C@@]2(C)Oc3c(C)c(O)c4c(=O)c(c5oc6cc(N7CCN(CCCCCCO[C@@H]8COc9nc([N+](=O)[O-])cn9C8)CC7)cc(C)c6nc-5c4c3C2=O)NC(=O)/C(C)=C\C=C\[C@H](C)[C@H](O)[C@@H](C)[C@@H](O)[C@@H](C)[C@H](OC(C)=O)[C@@H]1C [Compound 29e, (7S,9E,11S,12R,13S,14R,15R,16R,17S,18S,19E,21Z)-2,15,17-Trihydroxy-11-methoxy-3,7,12,14,16,18,22,32-octamethyl-30-[4-(6-{[(6S)-2-nitro-5H,6H,7H-imidazo[2,1-b][1,3]oxazin-6-yl]oxy}hexyl)piperazin-1-yl]-6,23,37-trioxo-8,27,38-trioxa-24,34-diazahexacyclo[23.11.1.1^4,7.0^5,36.0^26,35.0^28,33]octatriaconta-1(36)2,4,9,19,21,25,28,30,32,34-undecaen-13-yl acetate] | 0.07 | 2 | 112 | 99 | – | – | – | – |
| CO[C@H]1/C=C/O[C@@]2(C)Oc3c(C)c(O)c4c(c3C2=O)C2=NC3(CCN(CC(C)C)CC3)NC2=C(NC(=O)/C(C)=C\C=C\[C@H](C)[C@H](O)[C@@H](C)[C@@H](O)[C@@H](C)[C@H](OC(C)=O)[C@@H]1C)C4=O [RFB, rifabutin, reference compound] | 0.09 | 2.4 (≈ 2.03 ng/mL) | – | – | – | – | 117 | 107 |
